Compound in one experiment: Cn1c(=O)n(-c2ccc(C(C)(C)C#N)cc2)c2c3cc(-c4cnc5ccccc5c4)ccc3ncc21 [BEZ-235]
Description: surviving fraction relative to DMSO-only wells; higher = less growth inhibition. The conditions noted are these: exposure time: 5 days. The method, boiled down: (§1)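 Log-phase tumour cell lines were seeded at 250–500 cells per well in 384-well plates. After 24 hours they were exposed continuously for five days to inhibitors at 0.5, 1, 5, 10, 50, 100, 500 and 1000 nM. Viability was read by CellTiter-Glo luminescence after 10 minutes at room temperature, and surviving fraction is luminescence normalised to the median of DMSO-only wells. Each line was screened three times and kept only if replicate Pearson r >0.7 and median Z' >0.3.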

Compound in a further experiment: Cc1cn(-c2cc(NC(=O)c3ccc(C)c(Nc4nccc(-c5cccnc5)n4)c3)cc(C(F)(F)F)c2)cn1 [NILOTINIB]
The experiment is described as above. The conditions noted are these: exposure time: 5 days. A digest of the protocol:
as §1

± gives the standard deviation of the averaged measurements.

In the case of HCC70 BREAST, the surviving fraction with BEZ-235 (0.5 nM) worked out at 1.1 ± 0.04; with BEZ-235 (1 nM), 1.08 ± 0.075; with BEZ-235 (5 nM) it was 1.02 ± 0.082; with BEZ-235 (10 nM), 1.13 ± 0.1; with BEZ-235 (50 nM), 0.836 ± 0.1; with BEZ-235 (100 nM) it was 0.599 ± 0.068. Further, the surviving fraction with BEZ-235 (500 nM) is 0.347 ± 0.034; in the experiment with BEZ-235 (1000 nM), 0.296 ± 0.025; with NILOTINIB (0.5 nM), 1.07 ± 0.049; with NILOTINIB (1 nM), 1.13 ± 0.036; with NILOTINIB (5 nM), 1.12 ± 0.02; with NILOTINIB (10 nM), 1.09 ± 0.13. Besides, the surviving fraction with NILOTINIB (50 nM) turned out to be 1.17 ± 0.052; with NILOTINIB (100 nM), 1.33 ± 0.072; in the experiment with NILOTINIB (500 nM), 1.34 ± 0.079; with NILOTINIB (1000 nM), 1.31 ± 0.04.

With G292 BONE, the surviving fraction is 1.02 ± 0.026 with BEZ-235 (0.5 nM); 0.987 ± 0.027 with BEZ-235 (1 nM); 0.974 ± 0.025 with BEZ-235 (5 nM); 0.982 ± 0.036 with BEZ-235 (10 nM); 0.526 ± 0.032 with BEZ-235 (50 nM); 0.357 ± 0.0091 with BEZ-235 (100 nM). Besides, the surviving fraction with BEZ-235 (500 nM) worked out at 0.202 ± 0.0096; with BEZ-235 (1000 nM), 0.163 ± 0.0093; in the experiment with NILOTINIB (0.5 nM) it was 1.04 ± 0.042; with NILOTINIB (1 nM), 1 ± 0.044; with NILOTINIB (5 nM) it was 1.08 ± 0.033; with NILOTINIB (10 nM), 1.06 ± 0.048. In addition, the surviving fraction with NILOTINIB (50 nM) amounted to 1.08 ± 0.031; in the experiment with NILOTINIB (100 nM), 1.1 ± 0.023; with NILOTINIB (500 nM), 1.02 ± 0.013; with NILOTINIB (1000 nM), 0.956 ± 0.023.

Turning to HMT3552 BREAST, the surviving fraction turned out to be 1.09 in the experiment with BEZ-235 (0.5 nM); 1.05 with BEZ-235 (1 nM); 1.01 with BEZ-235 (5 nM); 1.02 with BEZ-235 (10 nM); 0.681 with BEZ-235 (50 nM); 0.466 with BEZ-235 (100 nM). Besides, the surviving fraction with BEZ-235 (500 nM) was 0.186; with BEZ-235 (1000 nM) it was 0.191; in the experiment with NILOTINIB (0.5 nM), 1.01 ± 0.031; with NILOTINIB (1 nM) it was 0.968 ± 0.018; in the experiment with NILOTINIB (5 nM), 1.04 ± 0.021; in the experiment with NILOTINIB (10 nM) it was 1.02 ± 0.018. Further, the surviving fraction with NILOTINIB (50 nM) was 1.09 ± 0.11; with NILOTINIB (100 nM), 1.07 ± 0.11; in the experiment with NILOTINIB (500 nM), 1.12 ± 0.12; with NILOTINIB (1000 nM) it was 1.1 ± 0.069.

Consider CCK81 LARGE INTESTINE, for which the surviving fraction with NILOTINIB (0.5 nM) worked out at 0.78 ± 0.088; in the experiment with NILOTINIB (1 nM), 0.839 ± 0.07; with NILOTINIB (5 nM), 0.759 ± 0.055; with NILOTINIB (10 nM), 0.737 ± 0.11; with NILOTINIB (50 nM), 0.931 ± 0.04; with NILOTINIB (100 nM), 0.877 ± 0.046. Also, the surviving fraction is 0.702 ± 0.1 with NILOTINIB (500 nM) and 0.616 ± 0.023 in the experiment with NILOTINIB (1000 nM).

Consider HCC38 BREAST, for which the surviving fraction in the experiment with BEZ-235 (0.5 nM) stood at 1.33 ± 0.21; with BEZ-235 (1 nM), 1.21 ± 0.094; with BEZ-235 (5 nM), 1.19 ± 0.037; in the experiment with BEZ-235 (10 nM) it was 1.2 ± 0.1; in the experiment with BEZ-235 (50 nM), 0.862 ± 0.013; in the experiment with BEZ-235 (100 nM), 0.666 ± 0.035. Further, the surviving fraction with BEZ-235 (500 nM) is 0.291 ± 0.041; with BEZ-235 (1000 nM) it was 0.278 ± 0.054; with NILOTINIB (0.5 nM), 0.988 ± 0.28; in the experiment with NILOTINIB (1 nM), 0.786 ± 0.015; in the experiment with NILOTINIB (5 nM), 1.01 ± 0.16; with NILOTINIB (10 nM), 0.818 ± 0.15. The surviving fraction with NILOTINIB (50 nM) is 0.742 ± 0.2; in the experiment with NILOTINIB (100 nM) it was 0.758 ± 0.039; in the experiment with NILOTINIB (500 nM) it was 0.823 ± 0.24; with NILOTINIB (1000 nM), 0.824 ± 0.16.

In the case of HMLE3 BREAST, the surviving fraction in the experiment with BEZ-235 (0.5 nM) was 1.03 ± 0.092; with BEZ-235 (1 nM), 0.966 ± 0.069; in the experiment with BEZ-235 (5 nM), 0.961 ± 0.036; with BEZ-235 (10 nM) it was 0.929 ± 0.047; in the experiment with BEZ-235 (50 nM) it was 0.582 ± 0.035; with BEZ-235 (100 nM), 0.315 ± 0.011. Moreover, the surviving fraction with BEZ-235 (500 nM) was found to be 0.111 ± 0.0049; in the experiment with BEZ-235 (1000 nM), 0.0777 ± 0.0078; with NILOTINIB (0.5 nM) it was 1.11 ± 0.018; in the experiment with NILOTINIB (1 nM), 1.07 ± 0.11; in the experiment with NILOTINIB (5 nM), 1.19 ± 0.1; with NILOTINIB (10 nM), 1.18 ± 0.15. Also, the surviving fraction in the experiment with NILOTINIB (50 nM) is 1.25 ± 0.026; with NILOTINIB (100 nM), 1.26 ± 0.068; in the experiment with NILOTINIB (500 nM) it was 1.27 ± 0.15; with NILOTINIB (1000 nM), 1.23 ± 0.18.

With HS578T BREAST, the surviving fraction stood at 1.13 ± 0.15 in the experiment with BEZ-235 (0.5 nM); 0.972 ± 0.15 in the experiment with BEZ-235 (1 nM); 0.997 ± 0.18 in the experiment with BEZ-235 (5 nM); 0.817 ± 0.092 with BEZ-235 (10 nM); 0.46 ± 0.028 in the experiment with BEZ-235 (50 nM); 0.384 ± 0.026 with BEZ-235 (100 nM). The surviving fraction was 0.263 ± 0.027 in the experiment with BEZ-235 (500 nM); 0.257 ± 0.02 with BEZ-235 (1000 nM); 0.935 ± 0.21 with NILOTINIB (0.5 nM); 1.06 ± 0.049 with NILOTINIB (1 nM); 0.932 ± 0.16 with NILOTINIB (5 nM); 0.796 ± 0.052 with NILOTINIB (10 nM). Further, the surviving fraction in the experiment with NILOTINIB (50 nM) is 0.766 ± 0.084; with NILOTINIB (100 nM), 0.841 ± 0.1; in the experiment with NILOTINIB (500 nM), 0.848 ± 0.091; with NILOTINIB (1000 nM) it was 0.669 ± 0.058.

Values taken from the supplement of paper PMC6045584.
